This note sets out measurements from ChEMBL document CHEMBL1909046, “DrugMatrix in vitro pharmacology data”.

In data set [1] the target is T1, Alpha-1D adrenergic receptor (Homo sapiens, UniProt P25100). Note: in other assays of this panel Not Active means under 50% inhibition at 10 µM.
T1 sequence (P25100 whole entry): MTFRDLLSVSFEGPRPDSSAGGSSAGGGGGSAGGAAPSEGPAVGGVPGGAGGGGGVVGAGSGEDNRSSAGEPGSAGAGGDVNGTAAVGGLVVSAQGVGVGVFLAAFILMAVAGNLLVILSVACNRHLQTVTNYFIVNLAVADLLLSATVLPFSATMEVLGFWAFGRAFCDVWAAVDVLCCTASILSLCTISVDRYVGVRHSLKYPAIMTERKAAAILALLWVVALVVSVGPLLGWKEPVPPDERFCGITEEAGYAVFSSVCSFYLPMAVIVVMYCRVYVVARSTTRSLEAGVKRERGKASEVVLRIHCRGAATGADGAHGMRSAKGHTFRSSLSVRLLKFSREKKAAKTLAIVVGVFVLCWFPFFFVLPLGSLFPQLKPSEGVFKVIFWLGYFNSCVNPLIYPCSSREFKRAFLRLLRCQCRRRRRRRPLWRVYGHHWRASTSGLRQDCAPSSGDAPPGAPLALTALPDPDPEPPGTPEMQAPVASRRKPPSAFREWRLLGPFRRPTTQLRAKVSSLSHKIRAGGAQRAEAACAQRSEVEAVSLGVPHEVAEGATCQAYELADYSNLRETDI
Format: cell membranes, HEK293, Membrane.

Data set [2] can be described thus: DRUGMATRIX: Sigma2 radioligand binding (ligand: [3H] Ifenprodil). It is filed as cell membranes, Rattus norvegicus, Wistar, Brain, Membrane. The conditions noted are these: Not Active = under 50% inhibition at 10 µM.
A further data set has as its target T2, Substance-K receptor (Homo sapiens, UniProt P21452). Note: in other assays of this panel Not Active means under 50% inhibition at 10 µM.
T2 sequence (P21452 whole entry): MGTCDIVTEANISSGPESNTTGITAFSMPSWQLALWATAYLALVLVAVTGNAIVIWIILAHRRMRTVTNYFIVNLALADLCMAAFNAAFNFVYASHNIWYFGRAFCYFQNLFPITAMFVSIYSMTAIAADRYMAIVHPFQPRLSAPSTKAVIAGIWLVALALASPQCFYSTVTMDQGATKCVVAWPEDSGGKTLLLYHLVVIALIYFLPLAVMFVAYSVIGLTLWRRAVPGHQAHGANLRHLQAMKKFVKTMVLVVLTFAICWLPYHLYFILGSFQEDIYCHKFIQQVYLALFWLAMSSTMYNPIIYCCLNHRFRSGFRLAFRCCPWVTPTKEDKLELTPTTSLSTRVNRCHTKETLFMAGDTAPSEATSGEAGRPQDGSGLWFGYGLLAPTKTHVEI
Format: cell membranes, CHO, Membrane. The conditions noted are these: cho.

In a further data set the target is Cannabinoid receptor 1 (Homo sapiens, UniProt P21554). Format: cell membranes, Membrane. The following applies: chem-1. Note: in other assays of this panel Not Active means under 50% inhibition at 10 µM.
Sequence of Cannabinoid receptor 1 (P21554 whole entry): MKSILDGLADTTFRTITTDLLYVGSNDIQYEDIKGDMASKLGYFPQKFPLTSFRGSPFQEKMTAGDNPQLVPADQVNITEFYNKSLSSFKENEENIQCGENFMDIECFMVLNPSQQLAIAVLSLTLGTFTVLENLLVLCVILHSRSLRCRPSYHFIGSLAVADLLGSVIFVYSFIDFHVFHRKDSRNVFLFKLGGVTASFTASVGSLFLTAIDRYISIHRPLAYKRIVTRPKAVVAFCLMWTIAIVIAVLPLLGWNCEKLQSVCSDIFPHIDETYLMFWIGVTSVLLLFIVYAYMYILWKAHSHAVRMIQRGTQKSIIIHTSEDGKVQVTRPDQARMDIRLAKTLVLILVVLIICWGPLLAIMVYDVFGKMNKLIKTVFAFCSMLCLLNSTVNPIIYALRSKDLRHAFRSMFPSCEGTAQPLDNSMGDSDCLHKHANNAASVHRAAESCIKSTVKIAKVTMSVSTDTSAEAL
Another data set addresses Carbonic anhydrase 2 (Homo sapiens, UniProt P00918). The experiment in a line: DRUGMATRIX: Carbonic Anhydrase II enzyme inhibition (substrate: 4-Nitrophenyl acetate (4-NPA)). It is filed as tissue-based, Erythrocyte. The following applies: erythrocyte; Not Active = under 50% inhibition at 10 µM.
A short description of data set [3]: DRUGMATRIX: GABAA, Muscimol, Central radioligand binding (ligand: [3H] Muscimol). Format: cell membranes, Rattus norvegicus, Wistar, Brain, Membrane. The conditions noted are these: Not Active = under 50% inhibition at 10 µM.
The target in another data set is T3, Leukotriene C4 synthase (Cavia porcellus, UniProt A6XA80).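 Note: enzyme inhibition assay of leukotriene C4 synthase, using LTA4 as the substrate; in other assays of this panel Not Active means under 50% inhibition at 10 µM.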
T3 sequence (A6XA80 whole entry): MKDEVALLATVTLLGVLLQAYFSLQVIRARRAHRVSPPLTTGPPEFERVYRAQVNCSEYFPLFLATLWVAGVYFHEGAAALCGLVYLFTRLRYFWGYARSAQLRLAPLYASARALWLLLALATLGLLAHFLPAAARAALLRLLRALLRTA
The data set is described as follows: biochemical. Format: tissue-based, Lung.

Data set [4] deals with Mitogen-activated protein kinase 14 (Homo sapiens, UniProt Q16539). More on the design: species or system Escherichia coli.
Sequence of Mitogen-activated protein kinase 14 (Q16539 whole entry): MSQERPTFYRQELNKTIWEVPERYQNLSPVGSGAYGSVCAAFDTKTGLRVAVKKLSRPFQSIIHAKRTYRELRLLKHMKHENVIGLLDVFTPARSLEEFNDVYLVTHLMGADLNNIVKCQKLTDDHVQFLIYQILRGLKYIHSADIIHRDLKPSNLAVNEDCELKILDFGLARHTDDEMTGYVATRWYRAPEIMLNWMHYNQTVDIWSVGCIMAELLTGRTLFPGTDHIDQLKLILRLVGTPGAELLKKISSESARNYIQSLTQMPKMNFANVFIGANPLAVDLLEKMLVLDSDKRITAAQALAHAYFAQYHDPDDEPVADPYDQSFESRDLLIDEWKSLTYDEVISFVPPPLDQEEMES
Data set [5] concerns the target Tyrosine-protein kinase Fyn (Homo sapiens, UniProt P06241). The data set is described as follows: biochemical. Format: cell-based, Insect cells.
The target of another data set is Acetylcholinesterase (Homo sapiens, UniProt P22303). The data set is described as follows: DRUGMATRIX: Acetylcholinesterase enzyme inhibition (substrate: acetylthiocholine). It is filed as cell-based, HEK293. The following applies: hek293; Not Active = under 50% inhibition at 10 µM.
Sequence of Acetylcholinesterase (P22303 whole entry): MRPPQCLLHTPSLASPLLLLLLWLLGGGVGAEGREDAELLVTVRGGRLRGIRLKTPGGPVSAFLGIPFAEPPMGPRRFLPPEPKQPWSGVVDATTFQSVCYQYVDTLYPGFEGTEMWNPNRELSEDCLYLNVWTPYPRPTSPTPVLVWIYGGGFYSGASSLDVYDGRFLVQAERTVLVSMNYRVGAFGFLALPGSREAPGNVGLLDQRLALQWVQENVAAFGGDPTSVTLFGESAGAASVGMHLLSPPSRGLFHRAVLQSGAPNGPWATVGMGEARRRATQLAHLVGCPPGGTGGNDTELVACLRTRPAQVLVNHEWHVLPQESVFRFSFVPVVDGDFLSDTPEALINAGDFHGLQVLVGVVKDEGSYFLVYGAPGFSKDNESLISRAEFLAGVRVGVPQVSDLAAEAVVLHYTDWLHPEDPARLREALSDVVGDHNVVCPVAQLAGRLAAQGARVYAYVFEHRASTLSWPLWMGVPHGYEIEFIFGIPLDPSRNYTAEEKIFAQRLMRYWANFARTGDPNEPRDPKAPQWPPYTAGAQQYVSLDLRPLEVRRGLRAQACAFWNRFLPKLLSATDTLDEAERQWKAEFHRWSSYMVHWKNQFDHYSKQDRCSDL
The target in another data set is T4, Adenosine receptor A3 (Homo sapiens, UniProt P0DMS8).
T4 sequence (P0DMS8 whole entry): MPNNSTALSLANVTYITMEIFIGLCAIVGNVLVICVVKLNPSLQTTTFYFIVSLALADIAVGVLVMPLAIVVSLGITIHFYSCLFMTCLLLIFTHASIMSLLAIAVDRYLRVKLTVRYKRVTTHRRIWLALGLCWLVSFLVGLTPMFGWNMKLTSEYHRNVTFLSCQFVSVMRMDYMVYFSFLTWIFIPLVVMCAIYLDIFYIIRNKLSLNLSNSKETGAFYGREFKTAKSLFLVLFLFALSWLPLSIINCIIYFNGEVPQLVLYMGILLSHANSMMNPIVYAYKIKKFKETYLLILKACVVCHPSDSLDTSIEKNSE
It is filed as cell membranes, CHO-K1, Membrane. The following applies: cho-k1.

The next data set deals with T5, Cytochrome P450 2A6 (Homo sapiens, UniProt P11509).
T5 sequence (P11509 whole entry): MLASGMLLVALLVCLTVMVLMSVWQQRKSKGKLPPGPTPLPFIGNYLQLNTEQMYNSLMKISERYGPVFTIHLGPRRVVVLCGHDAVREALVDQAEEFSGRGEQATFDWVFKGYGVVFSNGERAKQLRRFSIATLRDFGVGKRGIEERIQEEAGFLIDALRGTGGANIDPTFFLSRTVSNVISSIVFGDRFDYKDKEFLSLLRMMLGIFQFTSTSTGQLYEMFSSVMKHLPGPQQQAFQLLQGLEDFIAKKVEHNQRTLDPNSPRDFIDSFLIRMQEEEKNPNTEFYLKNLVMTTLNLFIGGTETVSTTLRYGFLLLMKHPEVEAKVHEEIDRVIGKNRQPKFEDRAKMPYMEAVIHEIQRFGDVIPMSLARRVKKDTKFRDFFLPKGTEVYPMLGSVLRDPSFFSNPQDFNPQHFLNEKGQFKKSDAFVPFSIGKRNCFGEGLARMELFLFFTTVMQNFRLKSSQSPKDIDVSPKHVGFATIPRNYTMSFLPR
The conditions noted are these: bti-tn-5b1-4.

The target in another data set is Cytochrome P450 2C9 (Homo sapiens, UniProt P11712). The conditions noted are these: bti-tn-5b1-4. Note: in other assays of this panel Not Active means under 50% inhibition at 10 µM.
Sequence of Cytochrome P450 2C9 (P11712 whole entry): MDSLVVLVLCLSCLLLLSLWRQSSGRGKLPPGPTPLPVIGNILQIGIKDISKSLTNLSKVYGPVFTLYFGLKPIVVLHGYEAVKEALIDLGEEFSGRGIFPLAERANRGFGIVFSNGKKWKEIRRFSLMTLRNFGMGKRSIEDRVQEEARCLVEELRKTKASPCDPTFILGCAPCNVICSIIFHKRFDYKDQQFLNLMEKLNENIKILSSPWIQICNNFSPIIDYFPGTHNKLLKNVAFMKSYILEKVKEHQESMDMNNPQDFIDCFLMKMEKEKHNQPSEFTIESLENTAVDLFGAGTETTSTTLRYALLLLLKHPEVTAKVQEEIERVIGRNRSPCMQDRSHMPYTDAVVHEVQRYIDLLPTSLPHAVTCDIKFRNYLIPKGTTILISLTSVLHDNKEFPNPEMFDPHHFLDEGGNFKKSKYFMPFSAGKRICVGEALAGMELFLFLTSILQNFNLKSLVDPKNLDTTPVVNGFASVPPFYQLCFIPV

Sequence of Tyrosine-protein kinase Fyn (P06241 whole entry): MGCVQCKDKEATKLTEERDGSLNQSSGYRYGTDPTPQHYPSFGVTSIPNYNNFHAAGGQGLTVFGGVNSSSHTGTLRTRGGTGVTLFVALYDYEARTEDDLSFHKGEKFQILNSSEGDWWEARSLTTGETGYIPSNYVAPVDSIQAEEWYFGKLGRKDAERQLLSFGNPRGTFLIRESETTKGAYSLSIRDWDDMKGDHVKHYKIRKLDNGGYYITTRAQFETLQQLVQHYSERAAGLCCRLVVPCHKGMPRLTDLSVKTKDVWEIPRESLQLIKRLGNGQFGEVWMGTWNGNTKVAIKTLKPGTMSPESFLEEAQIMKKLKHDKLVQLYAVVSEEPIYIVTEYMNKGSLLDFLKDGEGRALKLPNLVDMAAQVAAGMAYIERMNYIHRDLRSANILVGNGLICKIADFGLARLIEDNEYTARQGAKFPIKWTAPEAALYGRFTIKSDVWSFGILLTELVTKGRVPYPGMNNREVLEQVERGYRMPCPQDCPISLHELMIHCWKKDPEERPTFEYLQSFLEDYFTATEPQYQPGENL

By IC50 is commonly meant the concentration that inhibits the measured activity by half. One may read the Ki as the dissociation constant of the complex between target and ligand, obtained from inhibition or displacement. For `C=C1CC[C@H](O)C/C1=C/C=C1\CCC[C@]2(C)[C@@H]([C@H](C)/C=C/[C@H](C)C(C)C)CC[C@@H]12` [ERGOCALCIFEROL], the IC50 result (in data set [1] (hek293); in data set [2]; against Substance-K receptor; on Cannabinoid receptor 1; on Carbonic anhydrase 2; in data set [3]) was “Not Active” each time. For the same compound, the IC50 entry (against Leukotriene C4 synthase; in data set [4]; in data set [5] (insect cells); at Acetylcholinesterase; at Adenosine receptor A3; on Cytochrome P450 2A6) was “Not Active” in each case. Also, the IC50 result against Cytochrome P450 2C9 is “Not Active”. In addition, the Ki entry (in data set [2]; in data set [3]; at Cytochrome P450 2A6; at Cytochrome P450 2C9) was “Not Active” throughout.
As for `CN1C[C@H](C(=O)N[C@]2(C)O[C@@]3(O)[C@@H]4CCCN4C(=O)[C@H](Cc4ccccc4)N3C2=O)C=C2c3cccc4[nH]cc(c34)C[C@H]21` [ERGOTAMINE], the IC50 in data set [1] (read-out: IC50) is 0.049 µM; in [2], “Not Active”; on Substance-K receptor it was “Not Active”; at Cannabinoid receptor 1, “Not Active”; against Carbonic anhydrase 2, “Not Active”; in [3], “Not Active”. The IC50 result against Leukotriene C4 synthase was “Not Active”; in data set [4], “Not Active”; in data set [5] (read-out: IC50), 3.16 µM; at Acetylcholinesterase, “Not Active”; against Adenosine receptor A3 it was “Not Active”; against Cytochrome P450 2A6 it was “Not Active”. For the same compound, at Cytochrome P450 2C9, the IC50 result is on record as “Not Active”. For the same compound, the Ki in data set [1] (read-out: Ki) was 0.024 µM; in data set [2], “Not Active”; in [3], “Not Active”; on Cytochrome P450 2A6, “Not Active”; at Cytochrome P450 2C9, “Not Active”.
Take `CCc1cccc2c3c([nH]c12)C(CC)(CC(=O)O)OCC3` (stereo not drawn) [ETODOLAC]: the IC50 entry (in data set [1] (hek293); in data set [2]; on Substance-K receptor; at Cannabinoid receptor 1; at Carbonic anhydrase 2; in [3]) was “Not Active” in each case. Moreover, the half-inhibitory concentration (IC50) result (against Leukotriene C4 synthase; in data set [4]; in [5] (insect cells); at Acetylcholinesterase; against Adenosine receptor A3; on Cytochrome P450 2A6) was “Not Active” each time. Also, the IC50 entry on Cytochrome P450 2C9 is given as “Not Active”. Also, the Ki result (in [2]; in [3]; on Cytochrome P450 2A6; on Cytochrome P450 2C9) was “Not Active” each time.
In the case of `Cc1c(-c2ccccc2)oc2c(C(=O)OCCN3CCCCC3)cccc2c1=O` [FLAVOXATE], the IC50 result (in [1] (hek293); in [2]; against Substance-K receptor; against Cannabinoid receptor 1; against Carbonic anhydrase 2; in data set [3]) was “Not Active” in each case. Besides, the half-inhibitory concentration (IC50) entry (on Leukotriene C4 synthase; in data set [4]; in data set [5] (insect cells); against Acetylcholinesterase; against Adenosine receptor A3; against Cytochrome P450 2A6) was “Not Active” each time. Also, the IC50 entry against Cytochrome P450 2C9 is “Not Active”. The Ki result (in [2]; in data set [3]; at Cytochrome P450 2A6; on Cytochrome P450 2C9) was “Not Active” throughout.
Take `Nc1nc(=O)[nH]cc1F` [FLUCYTOSINE]: the IC50 entry (in [1] (hek293); in data set [2]; at Substance-K receptor; against Cannabinoid receptor 1; at Carbonic anhydrase 2; in [3]) was “Not Active” in each case. Besides, the IC50 entry (on Leukotriene C4 synthase; in data set [4]; in data set [5] (insect cells); against Acetylcholinesterase; at Adenosine receptor A3; at Cytochrome P450 2A6) was “Not Active” in each case. Also, the IC50 result against Cytochrome P450 2C9 is reported as “Not Active”. The Ki result (in [2]; in [3]; at Cytochrome P450 2A6; at Cytochrome P450 2C9) was “Not Active” in each case.
As for `O=C1OC2(c3ccc(O)cc3Oc3cc(O)ccc32)c2ccccc21` [FLUORESCEIN], the IC50 entry (in data set [1] (hek293); in data set [2]; against Substance-K receptor; at Cannabinoid receptor 1; against Carbonic anhydrase 2; in data set [3]) was “Not Active” each time. The IC50 entry (on Leukotriene C4 synthase; in data set [4]; in data set [5] (insect cells); at Acetylcholinesterase; at Adenosine receptor A3; on Cytochrome P450 2A6) was “Not Active” in each case. On Cytochrome P450 2C9, the IC50 result is on record as “Not Active”. The inhibitory constant (Ki) result (in [2]; in data set [3]; on Cytochrome P450 2A6; at Cytochrome P450 2C9) was “Not Active” in each case.
